Measured values reported in patent US20250197368A1 (priority 2020, published 2025).

Legend:
[1] = molecular target: human α2β3γ2 GABAARs (benzodiazepine site) (Homo sapiens (Human), UniProt P18507+P47869); test: In vitro radioligand binding assay ([3H]Ro15-1788 displacement), α2-GABAAR Ki
In short: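 Ki derived via Cheng-Prusoff from IC50 for displacement of 4 nM [3H]Ro15-1788 (Kd from saturation binding), with 1-3 μM TP003 defining nonspecific binding. Incubation lasted 1 h at 4° C on membranes of induced L(tk−) cells stably transfected with the human subunits; detection by filtration and scintillation counting.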

[2] = molecular target: human α3β3γ2 GABAARs (benzodiazepine site) (Homo sapiens (Human), UniProt P18507+P34903); test: In vitro radioligand binding assay ([3H]Ro15-1788 displacement), α3-GABAAR Ki; settings: L(tk-) cell membranes, 4 nM [3H]Ro15-1788
Description: The affinity (Ki) of compounds for the benzodiazepine site of human recombinant GABAARs was measured by their ability to inhibit the binding of the selective benzodiazepine antagonist [^3H]Ro15-1788 ([^3H] flumazenil).
Mouse L(tk^−) cells stably expressing human α1β3γ2, α2β3γ2, α3β3γ2, α5β3γ2 GABAARs were generated by transfection of the individual subunits in the dexamethasone-inducible expression vector pMSGneo in mouse L(tk^−) cells (Hadingham et al., 1993, Mol. Pharmacol. 43:970-975 and 1993, Mol. Pharmacol. 44:1211-1218).
L(tk^−) cells stably expressing human α1β3γ2, α2β3γ2, α3β3γ2, α5β3γ2 GABAARs were maintained in DMEM F12 medium supplemented with 10% Foetal Bovine Serum, 1% Penicillin/Streptomycin and 1 mg/mL Geneticin G418 in an incubator at 37° C. with a humidified atmosphere with 5% CO2. Dexamethasone was added to the culture medium to induce GABAAR expression.
L(tk−) cells were harvested and membranes were prepared for each receptor combination in either TE buffer (10 mM Tris·CI/0.1 mM EDTA, pH 7.5) or phosphate buffer (K2PO4 10 mM, pH 7.0) (Hadingham et al. (1992) Proc. Natl. Acad. Sci. USA; 89 (14): 6378-82). Protein concentration, receptor expression and the Kd of [^3H]Ro15-1788 were determined before Ki value of the compounds were evaluated. For Kd evaluation, saturation binding curves were obtained by incubating membrane with various concentrations of [^3H]Ro15-1788 (82.5 Ci/mM), with nonspecific binding measured in the presence of 1-3 μM TP003.
For Ki evaluation, cell membranes were incubated with 4 nM [^3H]Ro15-1788 along with a range of concentrations of test compound. Nonspecific binding was determined using 1-3 μM TP003. All incubations were performed for 1 hour at 4° C. in assay buffer. The total assay volume was 0.5 mL, containing 40 μg/well α1β3γ2, 30 μg/well α2β3γ2, 40 μg/well α3β3γ2 and 30 μg/well for α5β3γ2 of membrane protein. Incubations were terminated by filtration and washing with ice cold Tris-HCl buffer (50 mM, pH=7.4) over Whatman GF/B filters and the radioactivity of the filters was measured using liquid scintillation counting.
The % inhibition of [^3H]Ro15-1788 binding was plotted as a function of compound concentration and the IC50 calculated. From the IC50, the affinity (Ki) was calculated using the method of Cheng and Prusoff using the Kd values obtained for [^3H]Ro15-1788.

[3] = test system: human α2β3γ2 GABAARs; test: In vitro electrophysiological recording assay (automated patch-clamp), α2-GABAAR relative efficacy; type: cell-based; settings: % efficacy normalised to diazepam; GABA EC10-20; concentration generally >= 100 times Ki
In short: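 Relative efficacy is % enhancement of the leak-subtracted GABA EC10-20 peak current, divided by the separately measured diazepam value; compound generally tested at ≥100× Ki after ≥1 min pre-application. Recordings at room temperature, human receptors stably expressed in L(tk^−) (QPatch, −65 mV) or HEK293 (SyncroPatch, −80 mV) cells.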

[4] = test system: human α3β3γ2 GABAARs; test: In vitro electrophysiological recording assay (automated patch-clamp), α3-GABAAR relative efficacy; type: cell-based; settings: % efficacy normalised to diazepam; GABA EC10-20; concentration generally >= 100 times Ki
Description: The efficacy of modulators was evaluated using the automated patch-clamp platforms QPatch16 (Sophion, Copenhagen, Denmark) or SyncroPatch 384PE (Nanion, Germany).
For QPatch electrophysiology testing L(tk^−) cells stably expressing human α1β3γ2, α2β3γ2, α3β3γ2, α5β3γ2 GABAARs were used. HEK293 cells stably expressing human α1β3γ2L, α2β3γ2L, α3β3γ2L and α5β3γ2L GABAARs were used for the SyncroPatch 384PE experiments.
All experiments were carried out at room temperature (20-22° C.) using a standard whole cell procedure and physiological solutions. Gigaseals were formed upon execution of a combined suction/voltage protocol with subsequent increased suction leading to the whole-cell configuration.
The currents recorded were acquired at either 1 KHz or 2 KHz and filtered using a Bessel filter. Whole-cell currents were measured at a holding potential of-65 mV (QPatch) or −80 mV (SyncroPatch).
For QPatch experiments, the extracellular solution contained of: 145 mM NaCl, 4 mM KCl, 1 mM MgCl2, 2 mM CaCl2), 10 mM HEPES, 10 mM D-glucose (pH 7.4), and the intracellular solution consisted of: 96 mM KCl, 28 mM CsCl, 25 mM KOH, 4.3 mM CaCl2), 1.4 mM MgCl2, 10 mM EGTA, 10 mM HEPES, 3 mM MgATP (pH 7.2). The osmolarities of the extracellular and intracellular solutions were 305 and 295 mOsm respectively.
For SyncroPatch experiments, the extracellular recording solution contained: 140 mM NaCl, 4 mM KCl, 2 mM CaCl2), 1 mM MgCl2, 10 mM HEPES, 5 mM glucose (pH 7.4 with NaOH and osmolarity of c. 300-310 mOsm). The intracellular recording solution consisted of: 90 mM KCl, 50 mM KF, 1.5 mM MgCl2, 11.1 mM EGTA and 10 mM HEPES (pH 7.2 with KOH and osmolarity of c. 300 mOsm). 2 mM of NaATP was added to the intracellular solution on the day of testing.
The effects of modulators were evaluated in the presence of a submaximal GABA concentration, giving typically less than 30% activation of the response elicited by a saturating GABA concentration. To check and ensure baseline current stability before compound addition, two to five consecutive applications of GABA EC10-20 separated by wash steps were performed before compound addition. The test compound was applied 1 min at least prior to co-application with GABA EC10-20. Following a further wash step, a saturating concentration of GABA was applied at the end of each recording, allowing the accurate evaluation for each cell of the percentage baseline activation elicited by the submaximal GABA applied.
The compounds were first dissolved in DMSO as a 10 mM stock and then further diluted to the testing concentrations so that the final DMSO concentration in the extracellular recording solution was 0.1% (QPatch) or 0.2% (SyncroPatch).
The % efficacy of modulators was determined from the GABA elicited currents recorded in the presence and absence of the test compound, using the formula:
[((compound peak current−leak)−(GABA peak current-leak))/(GABA peak current−leak)]*100,
where ‘leak’ is the leak baseline current at the holding potential, ‘compound peak current’ is the current elicited by co-application of compound and GABA, and ‘GABA peak current’ is the current elicited by GABA alone at the last GABA application before compound addition. The results were presented as ‘relative efficacy’ for each compound generally at a concentration equal or higher than 100 times their determined Ki. The relative efficacy of a compound was calculated by normalising its % efficacy to the corresponding % efficacy of diazepam that was separately determined.

Sequence of human α2β3γ2 GABAARs (benzodiazepine site) (P47869 29-451): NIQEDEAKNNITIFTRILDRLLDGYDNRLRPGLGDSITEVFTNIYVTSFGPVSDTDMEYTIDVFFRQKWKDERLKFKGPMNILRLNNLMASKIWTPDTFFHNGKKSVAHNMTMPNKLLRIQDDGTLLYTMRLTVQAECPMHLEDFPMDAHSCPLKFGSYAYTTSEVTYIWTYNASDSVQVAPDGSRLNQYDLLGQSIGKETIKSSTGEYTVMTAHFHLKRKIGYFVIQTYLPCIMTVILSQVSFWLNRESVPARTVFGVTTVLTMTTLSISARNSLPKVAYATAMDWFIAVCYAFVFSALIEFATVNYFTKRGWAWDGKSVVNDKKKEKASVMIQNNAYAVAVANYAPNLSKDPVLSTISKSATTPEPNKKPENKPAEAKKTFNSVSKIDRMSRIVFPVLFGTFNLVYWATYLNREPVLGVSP
Sequence of human α2β3γ2 GABAARs (benzodiazepine site) (P28472 26-473 partner): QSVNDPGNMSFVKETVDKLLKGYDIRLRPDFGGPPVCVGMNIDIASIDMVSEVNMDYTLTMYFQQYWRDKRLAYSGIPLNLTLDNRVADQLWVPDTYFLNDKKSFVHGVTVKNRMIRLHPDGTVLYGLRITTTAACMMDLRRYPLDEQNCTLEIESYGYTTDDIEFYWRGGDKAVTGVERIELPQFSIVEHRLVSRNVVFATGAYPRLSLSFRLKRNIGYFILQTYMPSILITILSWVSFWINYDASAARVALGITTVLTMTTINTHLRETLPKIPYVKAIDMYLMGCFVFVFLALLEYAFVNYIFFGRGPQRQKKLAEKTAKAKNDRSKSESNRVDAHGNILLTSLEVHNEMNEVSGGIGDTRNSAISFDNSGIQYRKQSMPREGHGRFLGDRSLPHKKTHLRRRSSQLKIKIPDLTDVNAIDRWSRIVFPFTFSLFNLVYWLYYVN
Sequence of human α2β3γ2 GABAARs (benzodiazepine site) (P18507 40-475): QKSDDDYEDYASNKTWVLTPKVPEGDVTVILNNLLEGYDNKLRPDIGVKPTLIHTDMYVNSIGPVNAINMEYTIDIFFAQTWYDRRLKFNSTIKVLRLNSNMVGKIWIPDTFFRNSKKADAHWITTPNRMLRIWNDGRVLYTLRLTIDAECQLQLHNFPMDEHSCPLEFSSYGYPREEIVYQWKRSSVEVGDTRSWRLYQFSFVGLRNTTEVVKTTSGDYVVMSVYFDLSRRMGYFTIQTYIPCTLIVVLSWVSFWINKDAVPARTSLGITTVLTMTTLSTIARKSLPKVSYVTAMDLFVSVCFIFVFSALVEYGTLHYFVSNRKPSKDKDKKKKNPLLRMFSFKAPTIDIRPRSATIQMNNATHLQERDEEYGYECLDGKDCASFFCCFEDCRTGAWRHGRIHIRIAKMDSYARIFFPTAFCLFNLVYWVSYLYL

| SMILES | Ki [1] [nM] | Ki [2] [nM] | α2-GABAAR Relative Efficacy (vs. Diazepam) [3] | α3-GABAAR Relative Efficacy (vs. Diazepam) [4] |
| --- | --- | --- | --- | --- |
| CCCNC(=O)c1c(N)c2cccc(-c3nc(OC)ncc3F)c2[nH]c1=O [Example 42, 4-Amino-8-(5-fluoro-2-methoxy-pyrimidin-4-yl)-2-oxo-N-propyl-1H-quinoline-3-carboxamide] | 0.56 | 0.64 | 0.25 | 0.21 |
| [2H]C([2H])([2H])C([2H])([2H])C([2H])([2H])NC(=O)c1c(N)c2cccc(-c3cnccc3OC)c2[nH]c1=O [Example 62, 4-Amino-8-(4-methoxypyridin-3-yl)-2-oxo-N-(propyl-d7)-1,2-dihydroquinoline-3-carboxamide] | 6.85 | 5.41 | 0.28 | 0.44 |
| COc1ccncc1-c1cccc2c(N)c(C(=O)NCCC(F)(F)F)c(=O)[nH]c12 [Example 69, 4-Amino-8-(4-methoxypyridin-3-yl)-2-oxo-N-(3,3,3-trifluoropropyl)-1,2-dihydroquinoline-3-carboxamide] | 26.5 | 60.5 | 0.6 | 0.59 |
| CCCNC(=O)c1c(N)c2cccc(-c3cc(OCc4ccccn4)ccc3F)c2[nH]c1=O [Example 85, 4-Amino-8-[2-fluoro-5-(2-pyridylmethoxy)phenyl]-2-oxo-N-propyl-1H-quinoline-3-carboxamide] | 0.3 | 0.7 | 0.32 | 0.42 |
| CCCNC(=O)c1c(N)c2cccc(-c3cc(OCc4cccc(C#N)n4)ccc3F)c2[nH]c1=O [Example 91, 4-Amino-8-(5-((6-cyanopyridin-2-yl)methoxy)-2-fluorophenyl)-2-oxo-N-propyl-1,2-dihydroquinoline-3-carboxamide] | 0.46 | 1.3 | 0.18 | 0.29 |
| CCCNC(=O)c1c(N)c2cccc(-c3cc(OCc4ccc(F)cn4)ccc3F)c2[nH]c1=O [Example 92, 4-Amino-8-[2-fluoro-5-[(5-fluoro-2-pyridyl)methoxy]phenyl]-2-oxo-N-propyl-1H-quinoline-3-carboxamide] | 0.48 | 0.81 | 0.21 | 0.26 |
| CCCNC(=O)c1c(N)c2cccc(-c3cc(OCc4ccc(C)nc4)ccc3F)c2[nH]c1=O [Example 110, 4-Amino-8-[2-fluoro-5-[(6-methyl-3-pyridyl)methoxy]phenyl]-2-oxo-N-propyl-1H-quinoline-3-carboxamide] | 0.59 | 0.97 | 0.25 | 0.30 |
| CCCNC(=O)c1c(N)c2cccc(-c3cccc(OCc4cccnc4)n3)c2[nH]c1=O [Example 111, 4-Amino-2-oxo-N-propyl-8-(6-(pyridin-3-ylmethoxy)pyridin-2-yl)-1,2-dihydroquinoline-3-carboxamide] | 0.23 | 0.41 | 0.27 | 0.47 |
| CCCNC(=O)c1c(N)c2cccc(-c3cc(OCc4c[nH]cn4)ccc3F)c2[nH]c1=O [Example 124, 8-(5-((1H-Imidazol-4-yl)methoxy)-2-fluorophenyl)-4-amino-2-oxo-N-propyl-1,2-dihydroquinoline-3-carboxamide] | 0.98 | 1.55 | 0.28 | 0.34 |
| CCCNC(=O)c1c(N)c2cccc(-c3cc(CN4CCN(C)CC4)ccc3F)c2[nH]c1=O [Example 137, 4-Amino-8-[2-fluoro-5-[(4-methylpiperazin-1-yl)methyl]phenyl]-2-oxo-N-propyl-1H-quinoline-3-carboxamide] | 3 | 8.07 | 0.42 | 0.53 |
| CCCNC(=O)c1c(N)c2cccc(-c3nc(CN4CCN(C)CC4)ccc3F)c2[nH]c1=O [Example 138, 4-Amino-8-(3-fluoro-6-((4-methylpiperazin-1-yl)methyl)pyridin-2-yl)-2-oxo-N-propyl-1,2-dihydroquinoline-3-carboxamide] | 1.87 | 4.99 | 0.17 | 0.42 |
| CCCNC(=O)c1c(N)c2cccc(-c3cc(CN4CCC5(CCN(C)C5)C4)ccc3F)c2[nH]c1=O (stereo not drawn) [Example 142, 4-Amino-8-(2-fluoro-5-((7-methyl-2,7-diazaspiro[4.4]nonan-2-yl)methyl)phenyl)-2-oxo-N-propyl-1,2-dihydroquinoline-3-carboxamide] | 3.6 | 6.35 | 0.24 | 0.27 |
